Experimental data reported in PubChem BioAssay AID330 (DTP/NCI, 2004).
Several values for one entry are separate records, joined by “and”; a condition that tells them apart may be missing. Equal values may be shown once. Toxic doses and inconclusive results are not listed. Rule for the calls: active = survival T/C of 150% or more; inactive = T/C below 125% in these data.

Tested on: P388 leukemia ip, CD2F1 mice, survival T/C
Assay: NCI In Vivo Anticancer Drug Screen. Data for tumor model P388 Leukemia (intraperitoneal) in CD2F1 (CDF1) mice
Settings: endpoint: median survival time, higher = longer survival
Method in brief: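 Mice carrying the transplanted tumor received test compound or vehicle. Survival was recorded in each group, and the value is the treated-group measurement divided by that of the vehicle-treated control group.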

[1] = dose: 60.0 mg/kg/injection, schedule: Q01DX005 (ip), vehicle: saline with Tween-80
[2] = dose: 240.0 mg/kg/injection, schedule: Q01DX005 (ip), vehicle: saline with Tween-80
[3] = dose: 50.0 mg/kg/injection, schedule: Q01DX005 (ip), vehicle: saline with Tween-80
[4] = dose: 100.0 mg/kg/injection, schedule: Q01DX005 (ip), vehicle: saline with Tween-80
[5] = dose: 200.0 mg/kg/injection, schedule: Q01DX005 (ip), vehicle: saline with Tween-80
[6] = dose: 15.0 mg/kg/injection, schedule: Q01DX005 (ip), vehicle: saline
[7] = dose: 30.0 mg/kg/injection, schedule: Q01DX005 (ip), vehicle: saline
[8] = dose: 60.0 mg/kg/injection, schedule: Q01DX005 (ip), vehicle: saline
[9] = dose: 120.0 mg/kg/injection, schedule: Q01DX005 (ip), vehicle: saline with Tween-80
[10] = dose: 50.0 mg/kg/injection, schedule: Q01DX005 (ip), vehicle: Klucel (hydroxypropylcellulose) (HPC)
[11] = dose: 100.0 mg/kg/injection, schedule: Q01DX005 (ip), vehicle: Klucel (hydroxypropylcellulose) (HPC)
[12] = dose: 25.0 mg/kg/injection, schedule: Q01DX005 (ip), vehicle: saline with Tween-80
[13] = dose: 50.0 mg/kg/injection, schedule: Q01DX009 (ip), vehicle: saline with Tween-80
[14] = dose: 100.0 mg/kg/injection, schedule: Q01DX009 (ip), vehicle: saline with Tween-80
[15] = dose: 200.0 mg/kg/injection, schedule: Q01DX009 (ip), vehicle: saline with Tween-80
[16] = dose: 200.0 mg/kg/injection, schedule: Q01DX005 (ip), vehicle: Klucel (hydroxypropylcellulose) (HPC)

Measured: T/C

CC(=O)Oc1c(N)c(C)cc(C)c1F
inactive: dose: 1.56 mg/kg/injection, schedule: Q01DX009 (ip), vehicle: saline with Tween-80 101 % of control | dose: 3.12 mg/kg/injection, schedule: Q01DX009 (ip), vehicle: saline with Tween-80 93 % of control | dose: 6.25 mg/kg/injection, schedule: Q01DX009 (ip), vehicle: saline with Tween-80 100 % of control | dose: 12.5 mg/kg/injection, schedule: Q01DX009 (ip), vehicle: saline with Tween-80 96 % of control

O=[N+]([O-])c1cc(C(Nc2nncs2)Nc2nncs2)ccc1Cl
inactive: dose: 30.0 mg/kg/injection, schedule: Q01DX005 (ip), vehicle: saline with Tween-80 91 % of control | [1] 109 % of control and 87 % of control
active: [2] 150 % of control

CCCCCCCCCCCCN(CCCCCCCCCCCC)CC(O)c1cc2c(c3ccccc13)CCCC2 (stereo unspecified)
inactive: [3] 101 % of control | [4] 97 % of control | [5] 101 % of control

CCN(CC)Cc1cc(Nc2cc(C)nc3ccc(N(C)C)cc23)ccc1O
inactive: [6] 91 % of control | [7] 100 % of control | [8] 104 % of control and 110 % of control

CN(C)P1P(N(C)C)P(N(C)C)P1N(C)C (stereo unspecified)
inactive: [1] 97 % of control | [9] 97 % of control | [2] 95 % of control

COC1=C(N=[N+]=[N-])C(=O)C(OC)=C(N=[N+]=[N-])C1=O
inactive: dose: 5.0 mg/kg/injection, schedule: Q01DX009 (ip), vehicle: saline with Tween-80 90 % of control | dose: 10.0 mg/kg/injection, schedule: Q01DX009 (ip), vehicle: saline with Tween-80 90 % of control | dose: 20.0 mg/kg/injection, schedule: Q01DX009 (ip), vehicle: saline with Tween-80 100 % of control

O=C1c2cc(I)ccc2NC(O)c2cccn21 (stereo unspecified)
inactive: dose: 0.1 mg/kg/injection, schedule: Q01DX005 (ip), vehicle: water 93 % of control | dose: 0.2 mg/kg/injection, schedule: Q01DX005 (ip), vehicle: water 93 % of control | dose: 0.4 mg/kg/injection, schedule: Q01DX005 (ip), vehicle: water 99 % of control | dose: 0.8 mg/kg/injection, schedule: Q01DX005 (ip), vehicle: water 100 % of control | dose: 1.6 mg/kg/injection, schedule: Q01DX005 (ip), vehicle: water 96 % of control | dose: 5.0 mg/kg/injection, schedule: Q01DX005 (ip), vehicle: distilled water + Tween-80 94 % of control | dose: 10.0 mg/kg/injection, schedule: Q01DX005 (ip), vehicle: distilled water + Tween-80 100 % of control | dose: 20.0 mg/kg/injection, schedule: Q01DX005 (ip), vehicle: distilled water + Tween-80 99 % of control | dose: 40.0 mg/kg/injection, schedule: Q01DX005 (ip), vehicle: distilled water + Tween-80 92 % of control | dose: 80.0 mg/kg/injection, schedule: Q01DX005 (ip), vehicle: distilled water + Tween-80 93 % of control

CCCCCC(=O)NC1C(O)OC(CO)C(O)C1O (stereo unspecified)
inactive: [10] 106 % of control | [11] 97 % of control

CC(=O)C1C(c2ccccc2)SC(c2ccccc2)CC1(C)O (stereo unspecified)
inactive: dose: 100.0 mg/kg/injection, schedule: Q04DX002 (ip), vehicle: Klucel (hydroxypropylcellulose) (HPC) 96 % of control | dose: 200.0 mg/kg/injection, schedule: Q04DX002 (ip), vehicle: Klucel (hydroxypropylcellulose) (HPC) 94 % of control | dose: 400.0 mg/kg/injection, schedule: Q04DX002 (ip), vehicle: Klucel (hydroxypropylcellulose) (HPC) 87 % of control

CCOC(=O)c1cnc2cc3c(cc2c1N=[N+]=[N-])OCO3
inactive: [1] 95 % of control | [9] 90 % of control | [2] 87 % of control

COc1ccc(S(=O)(=O)N/N=C/c2ncc[nH]2)cc1
inactive: [12] 99 % of control | [3] 99 % of control | [4] 100 % of control

O=C1CCC2(c3ccccc3)CCCN=C2N1 (stereo unspecified)
inactive: dose: 100.0 mg/kg/injection, schedule: Q01DX001 (ip), vehicle: saline with Tween-80 104 % of control | dose: 200.0 mg/kg/injection, schedule: Q01DX001 (ip), vehicle: saline with Tween-80 99 % of control

CC1(c2ccccc2)OC1(C)c1ccccc1 (stereo unspecified)
inactive: dose: 50.0 mg/kg/injection, schedule: Q01DX009 (ip), vehicle: Klucel (hydroxypropylcellulose) (HPC) 103 % of control | dose: 100.0 mg/kg/injection, schedule: Q01DX009 (ip), vehicle: Klucel (hydroxypropylcellulose) (HPC) 103 % of control | dose: 200.0 mg/kg/injection, schedule: Q01DX009 (ip), vehicle: Klucel (hydroxypropylcellulose) (HPC) 103 % of control

NC(CC(C(=O)O)c1ccccc1)C(=O)O (stereo unspecified)
inactive: [13] 106 % of control | [14] 94 % of control | [15] 94 % of control

Oc1cc2c(cc1O)C(c1ccccc1)CNCC2 (stereo unspecified)
inactive: dose: 25.0 mg/kg/injection, schedule: Q01DX009 (ip), vehicle: saline with Tween-80 103 % of control | [13] 97 % of control | [14] 104 % of control

CCN(CC)CC(C)(C)C(=O)/C=C/c1ccc(Cl)c(Cl)c1
inactive: dose: 7.5 mg/kg/injection, schedule: Q01DX005 (ip), vehicle: saline 102 % of control | [6] 101 % of control | [7] 112 % of control | [8] 110 % of control | dose: 120.0 mg/kg/injection, schedule: Q01DX005 (ip), vehicle: saline 118 % of control | dose: 240.0 mg/kg/injection, schedule: Q01DX005 (ip), vehicle: saline 109 % of control

O=C(Oc1cc(O)cc2[o+]c(-c3ccc(O)cc3)c(O)cc12)c1ccccc1
inactive: [10] 96 % of control | [11] 109 % of control | [16] 96 % of control

COc1cccc2c1C(=O)c1c(O)c3c(c(O)c1C2=O)CC(O)(C1(C)OCCO1)CC3O (stereo unspecified)
inactive: dose: 3.13 mg/kg/injection, schedule: Q04DX003 (ip), vehicle: distilled water + Tween-80 99 % of control | dose: 6.25 mg/kg/injection, schedule: Q04DX003 (ip), vehicle: distilled water + Tween-80 99 % of control | dose: 12.5 mg/kg/injection, schedule: Q04DX003 (ip), vehicle: distilled water + Tween-80 99 % of control | dose: 25.0 mg/kg/injection, schedule: Q04DX003 (ip), vehicle: distilled water + Tween-80 96 % of control | dose: 50.0 mg/kg/injection, schedule: Q04DX003 (ip), vehicle: distilled water + Tween-80 98 % of control | dose: 100.0 mg/kg/injection, schedule: Q04DX003 (ip), vehicle: distilled water + Tween-80 98 % of control | dose: 200.0 mg/kg/injection, schedule: Q04DX003 (ip), vehicle: distilled water + Tween-80 106 % of control | dose: 400.0 mg/kg/injection, schedule: Q04DX003 (ip), vehicle: distilled water + Tween-80 106 % of control

CCC1SCC(=O)N1c1nncs1 (stereo unspecified)
inactive: [12] 104 % of control | [3] 101 % of control and 102 % of control | [4] 102 % of control and 97 % of control | [5] 101 % of control

COC1/C=C/O[C@@]2(C)Oc3c(C)c(O)c4c(O)c(cc(O)c4c3C2=O)NC(=O)/C(C)=C\C=C\[C@H](C)C(O)[C@@H](C)[C@@H](O)[C@@H](C)[C@H](OC(C)=O)[C@@H]1C (stereo partly specified)
inactive: dose: 6.25 mg/kg/injection, schedule: Q03HX024 (ip), vehicle: saline 100 % of control | dose: 12.5 mg/kg/injection, schedule: Q03HX024 (ip), vehicle: saline 110 % of control | dose: 25.0 mg/kg/injection, schedule: Q03HX024 (ip), vehicle: saline 100 % of control | dose: 50.0 mg/kg/injection, schedule: Q03HX024 (ip), vehicle: saline 100 % of control | [14] 90 % of control | dose: 100.0 mg/kg/injection, schedule: Q03HX024 (ip), vehicle: saline 100 % of control | dose: 100.0 mg/kg/injection, schedule: Q04DX003 (ip), vehicle: saline sonified 100 % of control | [15] 109 % of control | dose: 200.0 mg/kg/injection, schedule: Q04DX003 (ip), vehicle: saline sonified 100 % of control | dose: 400.0 mg/kg/injection, schedule: Q01DX009 (ip), vehicle: saline with Tween-80 118 % of control | dose: 400.0 mg/kg/injection, schedule: Q04DX003 (ip), vehicle: saline sonified 109 % of control

COc1ccc2c(c1)[C@@]13CCCC[C@H]1[C@@H](C2)[N+](CC1CC1)=CC3=NO
inactive: [10] 111 % of control | [11] 102 % of control | [16] 105 % of control
